# Reference: patent US9993562B2, “Metallic gold cluster molecules as therapeutic agents for arthritic animals” (priority 2016, dated 2018)
# No end group written: not given here.
# Legend:
# [1] = orally administered form, crystalline solid; cited from earlier work
# [2] = patients; cited from earlier work
# IL-6 = experiment: Amount of IL-6 at the arthritic joints (FIG. 10); type: in vivo, DBA/1 male mice
# Procedure: (§1) On day 22, groups of mice were given different drugs once each day for 28 days (4 weeks) until day 49 (end of week 7). The groups of mice were examined for inflammation and status.
# (§2) In reference to FIGS. 10 and 11, the amount of pro-inflammation cytokine factors IL-6 and IL-1β were measured at the arthritic joints of the variously treated mice groups.
# [3] = system: Collagen induced arthritis in mice; experiment: 3D CT scan of paw joints, bone density changes (FIG. 7); type: in vivo, DBA/1 male mice; settings: end of week 7
# Procedure: (§3) Type II collagen was dissolved in 0.1 mM acetic acid solution and was emulsified with equal volume of Complete Freund's Adjuvant to make a 1.0 mg/ml Type II collagen emulsion. After one week of resting and environment adjustment, DBA/1 male mice were divided into groups, each group was consisted of 10 mice. Each animal was injected intradermally at the 2-3 cm base of the tail an emulsion of 100 μg Type II collagen. On day 21, a second booster dose of 100 μg Type II collagen emulsion was injected. Negative control group of mice are injected with equal amount of 0.9% Sodium Chloride solution.
# as §1
# [4] = light and heat; cited from earlier work
# [5] = Amount of gold at the arthritic joints (FIG. 9); type: in vivo, DBA/1 male mice; settings: group 3, oral 1 mg/kg daily
# Procedure: as §1
# In reference to FIG. 9, the amount of gold was measured at the arthritic joints of the variously treated mice groups.
# [6] = system: Collagen induced arthritis in mice; experiment: Visual inflammation scoring of paws (0-4 per limb, four limbs summed), collagen induced arthritis; type: in vivo, DBA/1 male mice
# Excerpt: Collagen induced arthritis in mice has been the standard animal model for studying rheumatoid arthritis and other polyarthritis. DBA/1 male mice weighted 20-22 grams were purchased from Hua-Fu-Kang Biotechnology Limited, Beijing, China. Type II collagen and Complete Freund's Adjuvant were purchased from Chondrex Inc., Redmond, Wash., USA. Auranofin was purchased from Sigma, USA and Dexamethasone was purchased from Jin-Yao Amino Acid Company, Tianjing, China. Gold25(peptide)9 cluster molecules were prepared according to Example 1.
# as §3, §1
# The inflammation was assessed by means of a visual scoring method where mouse individual paws were graded from 0-4 as follows:
# 0 score: no redness and no swelling;
# 1 score: mild erythema at the toes;
# 2 scores: toe joints and paw swelling;
# 3 scores: swelling below ankle
# 4 scores: all ankle and paw swelling. • All four limbs of each mouse were examined and scored, and scores of all four limbs were added together for each mouse.
# [7] = Effect of treatment on body weight of type II collagen immunized mice; type: in vivo, DBA/1 male mice; settings: mean ± sd
# Procedure: DBA/1 male mice weighted 20-22 grams were purchased from Hua-Fu-Kang Biotechnology Limited, Beijing, China. Type II collagen and Complete Freund's Adjuvant were purchased from Chondrex Inc., Redmond, Wash., USA. […] Gold25(peptide)9 cluster molecules were prepared according to Example 1.
# as §3, §1
# IL-1β = experiment: Amount of IL-1β at the arthritic joints (FIG. 11); type: in vivo, DBA/1 male mice
# Procedure: as §1, §2
# [8] = system: Collagen induced arthritis in mice; experiment: Hematoxylin and eosin histology of hind limb joint sections (FIG. 8); type: in vivo, DBA/1 male mice; settings: H&E
# Procedure: as §3, §1
# To evaluate the soft tissue damages around the joint area, the joint tissues of the hind limbs of each mouse groups were then fixed, embedded, sectioned into slides and hematoxylin and eosin stained to examine the histology and histopathology changes at the joints.
# [9] = system: Collagen induced arthritis in mice; experiment: Pictures of hind limb swelling (FIG. 6), collagen induced arthritis; type: in vivo, DBA/1 male mice; settings: end of 7 weeks of the experiment
# Procedure: as §3, §1
# TNF = experiment: Amount of TNF at the arthritic joints; type: in vivo, DBA/1 male mice
# Procedure: as §1
# In reference to […], the amount of pro-inflammation cytokine TNF was measured at the arthritic joints of the variously treated mice groups. […] The observed significant differences in effectiveness between orally administering and intraperitoneally administering methods may result from the fact that the amount of gold can be more and directly up-taken through phagocytosis by the macrophage cells peritoneum. This effect is also largely consistent with the prior observation that gold25(peptide)9 cluster molecules are capable of induce apoptosis in various cells, and its binding ability of cysteine-rich pro-inflammation cytokines helps with its anti-inflammation effect.
molecule,measurement,setting,value
"CC[PH](CC)(CC)[Au][S][C@@H]1O[C@H](COC(C)=O)[C@@H](OC(C)=O)[C@H](OC(C)=O)[C@H]1OC(C)=O [Auranofin, 2,3,4,6-tetra-o-acetyl-1-thio-β-D-glucopyranosato-S-(triethyl-phosphine)-gold, reference compound]",Solubility in water,[1],insoluble in water
same,Side effects,[2],Diarrhea is the most commonly reported
same,Amount of IL-6 at the arthritic joints,"IL-6; group 3, oral 1 mg/kg daily",remained high
same,"Bone deformation and osteolysis of paw joints, 3D CT",[3]; oral 1 mg/kg daily,still developed bone deformation and osteolysis
same,Stability of the powder,[4],unstable and must be protected from light and heat
same,Amount of gold at the arthritic joints,[5],Less but comparable amount gold
same,"Inflammation visual score (sum of four limbs, each 0-4)","[6]; 35 d, i.g. 1 mg/kg once daily from day 22",6.66 ± 2.00
same,"Inflammation visual score (sum of four limbs, each 0-4)","[6]; 38 d, i.g. 1 mg/kg once daily from day 22",5.77 ± 3.42
same,"Inflammation visual score (sum of four limbs, each 0-4)","[6]; 42 d, i.g. 1 mg/kg once daily from day 22",8.11 ± 2.47
same,"Inflammation visual score (sum of four limbs, each 0-4)","[6]; 45 d, i.g. 1 mg/kg once daily from day 22",8.33 ± 3.42
same,"Inflammation visual score (sum of four limbs, each 0-4)","[6]; 49 d, i.g. 1 mg/kg once daily from day 22",9.88 ± 3.06
same,Swelling scores (in words),[6]; oral 1 mg/kg body weight,slightly lower swelling scores
same,Mice Body Weight,"[7]; 0 w (before dosing, which starts day 22), group i.g. 1 mg/kg",21.60 ± 1.17 g
same,Mice Body Weight,"[7]; 1 wk (before dosing), group i.g. 1 mg/kg",23.25 ± 1.11 g
same,Mice Body Weight,"[7]; 2 wk (before dosing), group i.g. 1 mg/kg",23.75 ± 1.11 g
same,Mice Body Weight,"[7]; 3 wk (before dosing), group i.g. 1 mg/kg",24.35 ± 1.53 g
same,Mice Body Weight,"[7]; 4 wk, i.g. 1 mg/kg once daily from day 22",22.10 ± 1.10 g
same,Mice Body Weight,"[7]; 5 wk, i.g. 1 mg/kg once daily from day 22",21.74 ± 1.14 g
same,Mice Body Weight,"[7]; 6 wk, i.g. 1 mg/kg once daily from day 22",23.24 ± 0.08 g
same,Mice Body Weight,"[7]; 7 wk, i.g. 1 mg/kg once daily from day 22",23.33 ± 0.25 g
same,Amount of IL-1β at the arthritic joints,"IL-1β; group 3, oral 1 mg/kg daily",remained high
same,"Joint histopathology (bone erosion, soft tissue damage, synovial macrophage infiltration)",[8]; oral 1 mg/kg daily,"significant soft tissue damages at the joint areas, and large number of infiltration of synovial macrophage cells"
same,Hind limb swelling in pictures (FIG. 6),[9]; oral 1 mg/kg daily,swelling and no obvious improvement
"C[C@@H]1C[C@H]2[C@@H]3CCC4=CC(=O)C=C[C@]4(C)[C@@]3(F)[C@@H](O)C[C@]2(C)[C@@]1(O)C(=O)CO [DEX, Dexamethasone, reference compound]","Inflammation visual score (sum of four limbs, each 0-4)","[6]; 35 d, i.g. 0.5 mg/kg once daily from day 22",0.22 ± 0.44
same,"Inflammation visual score (sum of four limbs, each 0-4)","[6]; 38 d, i.g. 0.5 mg/kg once daily from day 22",0.33 ± 0.71
same,"Inflammation visual score (sum of four limbs, each 0-4)","[6]; 42 d, i.g. 0.5 mg/kg once daily from day 22",1.22 ± 1.30
same,"Inflammation visual score (sum of four limbs, each 0-4)","[6]; 45 d, i.g. 0.5 mg/kg once daily from day 22",1.33 ± 1.00
same,"Inflammation visual score (sum of four limbs, each 0-4)","[6]; 49 d, i.g. 0.5 mg/kg once daily from day 22",1.22 ± 0.97
same,Mice Body Weight,"[7]; 2 wk (before dosing), group i.g. 0.5 mg/kg",23.20 ± 1.06 g
same,Mice Body Weight,"[7]; 3 wk (before dosing), group i.g. 0.5 mg/kg",23.50 ± 1.02 g
Au25 (peptide)9: metallic 25 gold atom cluster binding 9 peptides of SEQ ID NO: 1 Cys-Cys-Tyr-Gly-Gly-Pro-Lys-Lys-Lys-Arg-Lys-Pro-Gly (CCYGGPKKKRKPG; cysteine pairing not given here; also: 9 peptides bound to Au25 gold cluster),Amount of TNF at the arthritic joints,"TNF; group 4, oral 50 mg/kg daily",also reduced the amount of TNF
same,Amount of TNF at the arthritic joints,"TNF; group 5, i.p. 5 mg/kg daily",dramatically reduced the TNF generation
same,Amount of IL-6 at the arthritic joints,"IL-6; group 4, oral 50 mg/kg daily",reduced these two cytokines to the similar level as that of Dex
same,Amount of IL-6 at the arthritic joints,"IL-6; group 5, i.p. 5 mg/kg daily",reduced these two cytokines to the similar level as that of Dex
same,"Bone density, deformation and osteolysis of paw joints, 3D CT",[3]; i.p. 5 mg/kg daily,"significant improvement on the bone density comparing the non-treated arthritis mice, and no obvious osteolysis and only slight bone deformation"
same,"Bone deformation and osteolysis of paw joints, 3D CT",[3]; oral 50 mg/kg daily,still developed bone deformation and osteolysis
same,"Inflammation visual score (sum of four limbs, each 0-4)","[6]; 35 d, i.g. 50 mg/kg once daily from day 22",6.13 ± 3.09
same,"Inflammation visual score (sum of four limbs, each 0-4)","[6]; 35 d, i.p. 5 mg/kg once daily from day 22",8.00 ± 2.78
same,"Inflammation visual score (sum of four limbs, each 0-4)","[6]; 38 d, i.g. 50 mg/kg once daily from day 22",7.00 ± 3.07
same,"Inflammation visual score (sum of four limbs, each 0-4)","[6]; 38 d, i.p. 5 mg/kg once daily from day 22",7.77 ± 4.49
same,"Inflammation visual score (sum of four limbs, each 0-4)","[6]; 42 d, i.g. 50 mg/kg once daily from day 22",8.88 ± 3.04
same,"Inflammation visual score (sum of four limbs, each 0-4)","[6]; 42 d, i.p. 5 mg/kg once daily from day 22",7.00 ± 3.20
same,"Inflammation visual score (sum of four limbs, each 0-4)","[6]; 45 d, i.g. 50 mg/kg once daily from day 22",8.88 ± 3.52
same,"Inflammation visual score (sum of four limbs, each 0-4)","[6]; 45 d, i.p. 5 mg/kg once daily from day 22",6.38 ± 2.33
same,"Inflammation visual score (sum of four limbs, each 0-4)","[6]; 49 d, i.g. 50 mg/kg once daily from day 22",9.13 ± 0.48
same,"Inflammation visual score (sum of four limbs, each 0-4)","[6]; 49 d, i.p. 5 mg/kg once daily from day 22",5.88 ± 3.40
same,Swelling and joint deformity (in words),"[6]; i.p. 5 mg/kg body weight, 3′ week of treatment",significantly improved
same,Swelling scores (in words),"[6]; oral 50 mg/kg body weight, by the end of 4 weeks of treatment","better scores than Auranofin, but still developed comparable inflammation"
same,Mice Body Weight,"[7]; 0 w (before dosing, which starts day 22), group i.g. 50 mg/kg",21.60 ± 1.31 g
same,Mice Body Weight,"[7]; 0 w (before dosing, which starts day 22), group i.p. 5 mg/kg",22 ± 1.27 g
same,Mice Body Weight,"[7]; 1 wk (before dosing), group i.g. 50 mg/kg",23.05 ± 1.04 g
same,Mice Body Weight,"[7]; 1 wk (before dosing), group i.p. 5 mg/kg",23.25 ± 1.21 g
same,Mice Body Weight,"[7]; 2 wk (before dosing), group i.g. 50 mg/kg",23.40 ± 1.33 g
same,Mice Body Weight,"[7]; 2 wk (before dosing), group i.p. 5 mg/kg",24.13 ± 0.99 g
same,Mice Body Weight,"[7]; 3 wk (before dosing), group i.g. 50 mg/kg",24.10 ± 1.50 g
same,Mice Body Weight,"[7]; 3 wk (before dosing), group i.p. 5 mg/kg",24.00 ± 0.85 g
same,Mice Body Weight,"[7]; 4 wk, i.g. 50 mg/kg once daily from day 22",22.66 ± 1.64 g
same,Mice Body Weight,"[7]; 4 wk, i.p. 5 mg/kg once daily from day 22",23.30 ± 0.84 g
same,Mice Body Weight,"[7]; 5 wk, i.g. 50 mg/kg once daily from day 22",22.35 ± 1.73 g
same,Mice Body Weight,"[7]; 5 wk, i.p. 5 mg/kg once daily from day 22",23.01 ± 0.70 g
same,Mice Body Weight,"[7]; 6 wk, i.g. 50 mg/kg once daily from day 22",23.23 ± 1.71 g
same,Mice Body Weight,"[7]; 6 wk, i.p. 5 mg/kg once daily from day 22",22.63 ± 1.71 g
same,Mice Body Weight,"[7]; 7 wk, i.g. 50 mg/kg once daily from day 22",23.43 ± 1.47 g
same,Mice Body Weight,"[7]; 7 wk, i.p. 5 mg/kg once daily from day 22",22.47 ± 1.43 g
same,Amount of IL-1β at the arthritic joints,"IL-1β; group 4, oral 50 mg/kg daily",reduced these two cytokines to the similar level as that of Dex
same,Amount of IL-1β at the arthritic joints,"IL-1β; group 5, i.p. 5 mg/kg daily",reduced these two cytokines to the similar level as that of Dex
same,"Joint histopathology (bone erosion, soft tissue damage, synovial macrophage infiltration)",[8]; i.p. 5 mg/kg daily,the bone erosion is significantly less and no apparent number of synovial macrophage cells infiltration
same,"Joint histopathology (bone erosion, soft tissue damage, synovial macrophage infiltration)",[8]; oral 50 mg/kg daily,reduced soft tissue damages and less macrophage infiltration
same,Hind limb swelling in pictures (FIG. 6),[9]; i.p. 5 mg/kg daily,obvious reduced swelling and improvement in deformation
same,Hind limb swelling in pictures (FIG. 6),[9]; oral 50 mg/kg daily,still obvious swelling and slightly better condition
